In US20080027082A1, “USE OF ADENOSINE A1 ANTAGONISTS IN RADIOCONTRAST MEDIA INDUCED NEPHROPATHY” (priority 2006, published 2008):
Each block holds one molecule with its values, some of them ahead of it.

How the values were obtained:
PGP = PGP (Homo sapiens, UniProt P08183); assay: PGP-factor (Table 1); type: in vitro ADME
Permeability (Table 1) = type: in vitro ADME
[1] = tested on: radiocontrast media induced nephropathy; conditions: Shammas, 2001, Welch, 2002, Huber; cited from earlier work
[2] = tested on: renal hemodynamics and oxygenation; assay: renal blood flow and oxygenation following radiocontrast media (iodixanol) in anesthetized rats; type: in vivo, Wistar rats
Procedure: The experimental protocol was based on a previously published methodology. The experiments were performed using adult male 3-4 months old Wistar rats. Body weight ranged from 250 to 400 g. The rats received a standard chow diet. Feeding and drinking was discontinued approx. 12 hours before the surgery. The animals were anesthetized by intraperitoneal injection of urethane solution ([…]; 6 ml per kg), and placed on a heated table to maintain body temperature at 37° C. throughout surgery and subsequent experiments. After an incision in the left groin the femoral artery was carefully prepared and cannulated to measure the mean arterial blood pressure. Another catheter was placed into the carotid artery for administration of contrast medium. Finally, an inflatable cuff was placed around the abdominal aorta above the origin of the renal arteries. A servo controlled inflation of the cuff allowed for the reduction and maintenance of the renal perfusion pressure at a preset levels. Two 500 μm diameter optical fibers were implanted into the cortex and the outer medulla of left kidney to determine local laser-Doppler fluxes and an ultrasound transit time flowprobe was placed around the renal artery of the same kidney to determine total kidney blood flow (RBF). Renal oxygen levels (oxygen partial pressure=pO2) was likewise determined locally (cortical and medullary pO2, respectively; OxyLite, Oxford Optronics). After implantation and stabilization, the experiment was started by measuring hemodynamic and oxygenation parameters under baseline conditions. Vehicle or substance 1 (5 mg/kg as an intravenous bolus) were then administered. New measurements were performed, and 30 min after vehicle or substance 1 administration, lodixanol (Visipaque 320; 1.5 mL i.a.; Amersham Buchier, Braunschweig, Germany), or vehicle was applied. The experimental groups were thus: 1. Vehicle+Vehicle (‘control’), Vehicle+Visipaque, and sunstance 1+Visipaque.

phosphodiesterase PDE4 = phosphodiesterase PDE4 inhibition (enzyme profiling); type: biochemical; conditions: read-out: calculated pKi of the PDE4 inhibition (converted)
Text: (§1) The phosphodiesterase PDE4 inhibiting activity may be used for titration purposes of patients. The phosphodiesterase PDE4 inhibiting activity of the compounds described herein prevents overdosage of the selective A1 antagonist by alarming the patients with self-evident, non-serious signals like e.g. headache before serious events like e.g. CNS convulsion can occur.

[3] = tested on: radiocontrast media-dependent acute kidney failure; assay: diuresis and natriuresis following radiocontrast media (diatrizoate) in anesthetized rats; type: in vivo, Sprague-Dawley rats; conditions: for diuresis / sodium excretion: mean ± SEM
Procedure: The radiocontrast media-dependent acute kidney failure was induced using an experimental protocol based on that published by the group of Osswald,^22 Male Sprague-Dawley rats of approximately 300 g body weight were acclimatized for at least 1 week before the start of the chronic pretreatment with the nitric oxide synthase inhibitor N-nitro-L-arginine methyl ester (L-NAME for 7-9 weeks at a daily dose of 5 mg/kg). For the experiments, the overnight fasted rats (which had continued free access to drinking water) were anesthetized with Inactin (80 mg/kg, given i.p. as a bolus). Catheters were placed (i) in the trachea, (ii) in one jugular vein (for radiocontrast medium administration, and background saline infusion; see below), (iii) in the other jugular vein for vehicle or sunstance 1 administration, (iv) in the carotid artery for blood sampling, and part of the background saline infusion; see below), and (v) in the bladder for urine collection. The rats were kept on a heated table to maintain their body temperature at 37° C. After collecting urine samples for 60-90 min for baseline measurements, the animals received vehicle or substance 1 as follows: a loading bolus of 0.15, or 1.5 mg substance 1 per kg, or vehicle, in a volume of 1 mukg, was applied intravenously, followed by a continuous intravenous infusion at a rate of […] substance 1 per kg per min, or vehicle, in a volume of 11 μL/kg·min until the end of the experiment. With these dose regimens steady-state plasma levels of substance 1 were 59±23, and 314±36 ng/mL, respectively. Ten minutes after the start of the substance 1 (or vehicle) treatment, diatrizoate (meglumine salt, Urolux, 0.61 g diatrizoate/mL, corresponding to a total iodine content of 290 mg/mL, Sanochemia Diagnostics, Neuss, Germany), prewarmed at body temperature, was infused iv over 3 min at a dose of 2.55 mL/kg, corresponding to 740 mg iodine/kg (the timepoint of contrast medium administration was defined as t0). A background saline solution was infused from the beginning and maintained at a rate of ˜1.2 mL/h per 100 g until the end of the experiments (0.24 mL/h via the arterial catheter, and 0.96 mL/h via the venous line). This infusion was required to compensate for the volume loss due to the operation, and the subsequent blood sampling, but also to insure the patency of the arterial catheter between the blood sampling timepoints. Urine samples were collected according to the following schedule: baseline (60-90 min preceding the start of substance 1, or vehicle, administration), t0-30 min (0.5 h timepoint), 30-60 min (1 h timepoint), 60-120 min (2 h timepoint), and 120-180 min (3 h timepoint). Plasma samples were taken at the end of each of the above periods. The measured values of urine volume, and urine levels of Na^+ were used to calculate the rates of diuresis and natriuresis over the time intervals mentioned above.

adenosine A1 receptor = molecular target: T1, adenosine A1 receptor (Homo sapiens, UniProt P30542); assay: receptor binding and enzyme profiling in a wide range of assays
T1 sequence (P30542 1-326): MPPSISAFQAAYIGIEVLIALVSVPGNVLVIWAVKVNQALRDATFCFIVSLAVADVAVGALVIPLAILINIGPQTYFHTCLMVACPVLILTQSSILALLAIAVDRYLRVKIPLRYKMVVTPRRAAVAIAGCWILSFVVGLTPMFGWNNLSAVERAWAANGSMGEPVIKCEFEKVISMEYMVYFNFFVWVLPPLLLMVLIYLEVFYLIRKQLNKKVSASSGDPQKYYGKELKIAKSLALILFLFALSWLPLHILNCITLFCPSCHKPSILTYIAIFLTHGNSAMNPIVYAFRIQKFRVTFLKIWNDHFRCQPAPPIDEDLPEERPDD
Text: as §1

[4] = tested on: phosphodiesterases (PDE 1, 2, 3, 5 and 6); assay: inhibition of other phosphodiesterases (enzyme profiling); type: biochemical; conditions: relative to PDE4 inhibition
Text: as §1

[5] = steady-state plasma levels in anesthetized L-NAME pretreated rats; type: in vivo, Sprague-Dawley rats; conditions: rat
Procedure: The radiocontrast media-dependent acute kidney failure was induced using an experimental protocol based on that published by the group of Osswald,^22 Male Sprague-Dawley rats of approximately 300 g body weight were acclimatized for at least 1 week before the start of the chronic pretreatment with the nitric oxide synthase inhibitor N-nitro-L-arginine methyl ester (L-NAME for 7-9 weeks at a daily dose of 5 mg/kg). For the experiments, the overnight fasted rats (which had continued free access to drinking water) were anesthetized with Inactin (80 mg/kg, given i.p. as a bolus). Catheters were placed (i) in the trachea, (ii) in one jugular vein (for radiocontrast medium administration, and background saline infusion; see below), (iii) in the other jugular vein for vehicle or sunstance 1 administration, (iv) in the carotid artery for blood sampling, and part of the background saline infusion; see below), and (v) in the bladder for urine collection. The rats were kept on a heated table to maintain their body temperature at 37° C. […] The measured values of urine volume, and urine levels of Na^+ were used to calculate the rates of diuresis and natriuresis over the time intervals mentioned above.

[6] = Low dose, 0.5 h after CM (diatrizoate)
[7] = Low dose, 1 h after CM (diatrizoate)
[8] = Low dose, 2 h after CM (diatrizoate)
[9] = Low dose, 3 h after CM (diatrizoate)
[10] = high dose, 0.5 h after CM (diatrizoate)
[11] = high dose, 1 h after CM (diatrizoate)
[12] = high dose, 2 h after CM (diatrizoate)
[13] = high dose, 3 h after CM (diatrizoate)

PGP, sequence (P08183 whole entry): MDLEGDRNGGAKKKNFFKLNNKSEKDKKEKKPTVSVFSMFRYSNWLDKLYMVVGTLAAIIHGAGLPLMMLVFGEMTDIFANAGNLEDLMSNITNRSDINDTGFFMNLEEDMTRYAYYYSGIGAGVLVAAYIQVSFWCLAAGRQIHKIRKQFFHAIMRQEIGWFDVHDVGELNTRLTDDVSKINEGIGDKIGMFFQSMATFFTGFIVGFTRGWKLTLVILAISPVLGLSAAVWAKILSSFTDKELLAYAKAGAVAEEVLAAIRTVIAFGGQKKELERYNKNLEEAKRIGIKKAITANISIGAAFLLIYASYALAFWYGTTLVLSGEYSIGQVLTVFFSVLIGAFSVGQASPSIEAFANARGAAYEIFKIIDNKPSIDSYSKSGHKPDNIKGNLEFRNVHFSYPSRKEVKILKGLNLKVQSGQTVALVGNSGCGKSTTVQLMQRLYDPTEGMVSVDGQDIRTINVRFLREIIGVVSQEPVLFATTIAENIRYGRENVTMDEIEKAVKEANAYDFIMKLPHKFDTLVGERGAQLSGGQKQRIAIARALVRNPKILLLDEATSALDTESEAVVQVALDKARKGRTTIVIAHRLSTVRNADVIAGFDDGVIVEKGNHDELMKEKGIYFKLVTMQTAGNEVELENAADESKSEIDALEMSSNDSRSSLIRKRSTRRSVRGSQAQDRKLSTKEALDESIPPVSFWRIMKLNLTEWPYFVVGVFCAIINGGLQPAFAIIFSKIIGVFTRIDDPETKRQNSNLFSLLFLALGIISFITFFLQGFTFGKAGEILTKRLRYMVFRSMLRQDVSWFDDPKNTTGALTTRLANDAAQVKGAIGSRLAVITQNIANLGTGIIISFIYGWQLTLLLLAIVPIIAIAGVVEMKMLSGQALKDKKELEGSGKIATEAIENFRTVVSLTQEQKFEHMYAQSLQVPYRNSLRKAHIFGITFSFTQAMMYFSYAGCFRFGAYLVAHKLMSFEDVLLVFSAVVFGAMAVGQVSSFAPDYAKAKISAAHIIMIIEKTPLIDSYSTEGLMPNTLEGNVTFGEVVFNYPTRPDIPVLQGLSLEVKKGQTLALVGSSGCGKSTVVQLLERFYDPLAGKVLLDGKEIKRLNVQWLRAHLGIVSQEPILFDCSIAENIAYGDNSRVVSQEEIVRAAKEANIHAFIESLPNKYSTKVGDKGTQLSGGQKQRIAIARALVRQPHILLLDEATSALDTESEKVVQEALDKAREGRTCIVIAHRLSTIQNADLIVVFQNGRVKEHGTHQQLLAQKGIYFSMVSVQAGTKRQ

PGP-factor (PGP): 1.4
Permeability (%) (Permeability (Table 1)): 31.1%
SMILES: CCCn1c(=O)c2[nH]c(C34CC5CC(CC3C5)C4)nc2n(CCC)c1=O [KW3902, reference compound]

Ki (phosphodiesterase PDE4): 0.75 µM
PGP-factor (PGP): 1.5
activities on other phosphodiesterases (PDE 1, 2, 3, 5 and 6), fold lower than on PDE4 [4]: at least 25 fold
steady-state plasma level ([5]; iv loading bolus 0.15 mg/kg, then infusion 1.5 pg per kg per min (so in the source)): 59 ± 23 ng/mL
steady-state plasma level ([5]; iv loading bolus 1.5 mg/kg, then infusion 15 pg per kg per min (so in the source)): 314 ± 36 ng/mL
Permeability (%) (Permeability (Table 1)): 37.4%
SMILES: CS(=O)(=O)O.OC1CCC(Nc2nc(-c3ccccc3)nc3[nH]ccc23)CC1 (stereo not drawn) [substance 1, 4-[(2-phenyl-7H-pyrrolo[2,3-o]pyrimidin-4-yl)amino]-trans-cyclohexanol methanesulfonate]
renal cortical vascular conductance ([2]; substance 1 5 mg/kg iv + Visipaque (FIG. 4)): maintained this parameter at levels seen in the vehicle control group
cortical pO2 ([2]; substance 1 5 mg/kg iv + Visipaque, until the end of the experiment (FIG. 5)): significant increase
renal cortical blood flow ([2]; substance 1 5 mg/kg iv + Visipaque, vs. Vehicle+Visipaque, 20 min measurement (FIG. 3)): sustained and significant increase
effect on Visipaque-induced changes of medullary blood flow and medullary vascular conductance ([2]; substance 1 5 mg/kg iv + Visipaque, not shown): only partially (but significantly) prevented these effects
effect on the Visipaque-induced increase in mean arterial blood pressure ([2]; substance 1 5 mg/kg iv bolus 30 min before Visipaque 1.5 mL i.a., not shown): partially prevented
hemodynamic parameters (arterial blood pressure, RBF) before the Visipaque challenge ([2]; substance 1 5 mg/kg iv bolus, not shown): did not modify
diuresis [3, 6]: 27.31 ± 2.36 mL per kg body weight per h
sodium excretion [3, 6]: 3039 ± 354 μmol per kg body weight per h
diuresis [3, 7]: 3.87 ± 0.40 mL per kg body weight per h
sodium excretion [3, 7]: 338 ± 81 μmol per kg body weight per h
diuresis [3, 8]: 3.34 ± 0.42 mL per kg body weight per h
sodium excretion [3, 8]: 613 ± 121 μmol per kg body weight per h
diuresis [3, 9]: 3.54 ± 0.50 mL per kg body weight per h
sodium excretion [3, 9]: 842 ± 121 μmol per kg body weight per h
persistence of the stimulating effect on diuresis ([3]; after contrast medium (diatrizoate) administration): at least 3 h
potassium excretion ([3]; after diatrizoate, throughout the experiment, not shown): not relevantly affected
chloride excretion ([3]; after diatrizoate, not shown): stimulated
diuresis [3, 10]: 28.01 ± 2.02 mL per kg body weight per h
sodium excretion [3, 10]: 3301 ± 306 μmol per kg body weight per h
diuresis [3, 11]: 4.97 ± 0.30 mL per kg body weight per h
sodium excretion [3, 11]: 520 ± 77 μmol per kg body weight per h
diuresis [3, 12]: 3.13 ± 0.27 mL per kg body weight per h
sodium excretion [3, 12]: 591 ± 88 μmol per kg body weight per h
diuresis [3, 13]: 3.11 ± 0.36 mL per kg body weight per h
sodium excretion [3, 13]: 830 ± 91 μmol per kg body weight per h
conclusion from receptor binding and enzyme profiling (adenosine A1 receptor): selective adenosine A1 receptor ligand with some phosphodiesterase PDE4 inhibiting activity

PGP-factor (PGP): 10.1
Permeability (%) (Permeability (Table 1)): 27.0%
SMILES: CS(=O)(=O)O.NC(=O)[C@@H]1C[C@H](O)CN1c1nc(-c2ccccc2)nc2[nH]ccc12 [substance 2, (4S)-4-hydroxy-1-(2-phenyl-7H-pyrrolo[2,3-a]pyrimidin-4-yl)-L-prolinamide methanesulfonate]

Continued, molecule first:

SMILES: Cn1c(=O)c2[nH]cnc2n(C)c1=O [Aminophylline]
protection against radiocontrast media induced nephropathy [1]: does not appear to add a protective role

SMILES: Cn1c(=O)c2[nH]cnc2n(C)c1=O [theophylline]
protection against radiocontrast media induced nephropathy [1]: effective
